6 compounds from patent US20230241073A1, “PHARMACEUTICAL COMPOSITION FOR PREVENTING OR TREATING NON-SMALL CELL LUNG CANCER ASSOCIATED WITH RON MUTANTATION, AND METHOD USING SAME” (WELLMARKER BIO CO., LTD., priority 2020, published 2023) can be followed below.

Structures can show the parent of a compound that is named as a salt. Some results are limits rather than exact numbers.

Usually IC50 stands for the concentration that inhibits the measured activity by half. Higher therefore signals a need for much substance.

Test [1] relates to NCI-H358 non-small cell lung cancer cell line of a mutation RONΔ155 type. Description: Cell killing efficacy, trypan blue exclusion assay, NCI-H358. It counts as cell-based. The note with it: NCI-H358, 1 μM, 48 hours, FIG. 1. The method, then:
(§1) A549 and NCI-H358, which are non-small cell lung cancer cell lines of a mutation RONΔ155 type, were dispensed, and 24 hours later, treated with 1 μM of the compounds of Examples 1 (WM-S1-030) to 5, positive control 1 (BMS-777607) and positive control 2 (AMG-510), respectively, while replacing the medium. After 48 hours, the cells and the cell fluid were harvested (1500 rpm, 4 min), and live cells and dead cells were quantified through trypan blue (15250-061, Gibco) exclusion assay. Statistical analysis was performed using T-test in Excel.

Test [2] concerns A549 non-small cell lung cancer cell line of a mutation RONΔ155 type. Nature of the test: Cell killing efficacy, trypan blue exclusion assay, A549. The note with it: A549, 1 μM, 48 hours, FIG. 1. It counts as cell-based. How it is done: as §1
For test [3], the system named is NCI-H460 (mRONΔ165) non-small cell lung cancer cell line transplanted mouse model. Description: Tumor growth inhibition in NCI-H460 transplanted animal model. In kind it is in vivo. The settings on record: NCI-H460 xenograft, 50 mg/kg, once a day for 2 weeks. The method, then: It was confirmed whether tumor growth was inhibited by administering Example 1 (WM-S1-030) at a dose of 50 mpk to a mouse model transplanted with NCI-H460, which is a non-small cell lung cancer cell line of a mutation RONΔ165 type. Specifically, 5-week-old female BALB/c-nude mice were purchased and acclimatized for 1 week. Thereafter, NCI-H460 (2×10^6 cells/mouse), a non-small cell lung cancer cell line of a mutation RONΔ165 type, was diluted in PBS and Matrigel, and 200 μL was injected subcutaneously into the right dorsal side of the mouse. When the size of the tumor reached about 100 mm^3, the negative control (excipient) and Example 1 were orally administered. In this case, positive control 1 (BMS-777607) was administered at a dose of 50 mpk. The drug was administered once a day for 2 weeks, and the tumor size and body weight were measured twice a week. After the drug administration was completed, the mice were euthanized, the tumor was extracted, and the weight was measured.

For test [4], the system named is NCI-H358 non-small cell lung cancer cell line of a mutation RONΔ155 type. Description: MTS assay, cell growth inhibitory ability, NCI-H358. It counts as cell-based. The settings on record: Homo sapiens; NCI-H358, RON mutation Δ155, 72 hours. The method, then:
(§2) In order to compare and confirm the cell growth inhibitory ability of Examples 1 (WM-S1-030) to 5, positive control 1 (BMS-777607) and positive control 2 (AMG-510) in four non-small cell lung cancer cell lines of a mutation RONΔ155 type (Calu-6, A549, NCI-H358, NCI-H1944), MTS assay was carried out.
(§3) For MTS assay, 1,000 cells of each non-small cell lung cancer cell line per well were seeded in a 96-well-plate, and 24 hours later, treated with the compounds of Examples 1 to 5, positive control 1 and positive control 2 at various concentrations ([…]) in 100 μL of 10% FBS-RPMI medium (Welgene) per each well. Thereafter, the cells were cultured for 72 hours, and then 20 μL of MTS solution (Promega) was added and cultured for 2 hours, and then absorbance was measured at 490 nm. The cytotoxicity was analyzed by deriving the IC50 for the compounds of Examples 1 to 5, positive control 1 and positive control 2 using GraphPad Prism™ 5.
(Tetrazolium assays rely on reduction of a dye to a coloured formazan, in cell work by metabolically active cells.)

Test [5] deals with A549 non-small cell lung cancer cell line of a mutation RONΔ155 type. Description: MTS assay, cell growth inhibitory ability, A549. The settings on record: Homo sapiens; A549, RON mutation Δ155, 72 hours. In kind it is cell-based. How it is done: as §2, §3
Test [6] deals with NCI-H1944 non-small cell lung cancer cell line of a mutation RONΔ155 type. Description: MTS assay, cell growth inhibitory ability, NCI-H1944. The note with it: Homo sapiens; NCI-H1944, RON mutation Δ155, 72 hours. In kind it is cell-based. The method, then:
as §2, §3

The test system of test [7] is Calu-6 non-small cell lung cancer cell line of a mutation RONΔ155 type. Description: MTS assay, cell growth inhibitory ability, Calu-6. The settings on record: Homo sapiens; Calu-6, RON mutation Δ155, 72 hours. In kind it is cell-based. How it is done: as §2, §3

On to `CCOc1ccn(-c2ccc(F)cc2)c(=O)c1C(=O)Nc1ccc(Oc2ccnc(N)c2Cl)c(F)c1` [Positive control 1, N-{4-[(2-amino-3-chloro-4-pyridinyl)oxy]-3-fluorophenyl}-4-ethoxy-1-(4-fluorophenyl)-2-oxo-1,2-dihydro-3-pyridinecarboxamide, reference compound], for which the “Cell killing efficacy (cell death)” value in test [1] and in test [2] was “response to the drug was low” throughout. For the same compound, in test [3], the “Tumor growth inhibition rate (TGI, %)” value came out at 26.1 ± 1.7%. In addition, the IC50 in test [4], in test [5], in test [6] and in test [7] was > 10000 nM throughout.

As to `COc1cc2c(Oc3ccc(NC(=O)c4c5c(cn(-c6ccc(F)cc6)c4=O)CCO5)cc3F)ccnc2cc1OCCCN1CC(C#N)C1` [Example 5, N-[4-({7-[3-(3-cyanoazetidin-1-yl)propoxy]-6-methoxyquinolin-4-yl}oxy)-3-fluorophenyl]-5-(4-fluorophenyl)-6-oxo-2,3,5,6-tetrahydrofuro[3,2-c]pyridine-7-carboxamide], the IC50 is 270 nM in test [4], 190 nM in test [5], 310 nM in test [6] and 1330 nM in test [7].

With `CCOc1ccn(-c2ccccc2)c(=O)c1C(=O)Nc1ccc(Oc2ccnc3cc(-c4ccc(CN5CCN(C)CC5)cn4)sc23)c(F)c1` [Example 3, hydrochloride], the IC50 in test [4] turned out to be 2610 nM; in test [5] it was 610 nM; in test [6] it was 2160 nM; in test [7] it was 1550 nM.

For the compound `COc1cc2c(Oc3ccc(NC(=O)c4c5c(cn(-c6ccc(F)cc6)c4=O)CCO5)cc3F)ccnc2cc1OCCN1CCOCC1` [Example 4, N-(3-fluoro-4-{[6-methoxy-7-(2-morpholinoethoxy)quinolin-4-yl]oxy}phenyl)-5-(4-fluorophenyl)-6-oxo-2,3,5,6-tetrahydrofuro[3,2-c]pyridine-7-carboxamide], the IC50 came to 890 nM in test [4], 370 nM in test [5], 600 nM in test [6] and 850 nM in test [7].

Turning to `CCOc1ccn(-c2ccccc2)c(=O)c1C(=O)Nc1ccc(Oc2ccnc3cc(-c4ccc(CNCCOC)cn4)sc23)c(F)c1` [Example 2, 4-ethoxy-N-(3-fluoro-4-{[2-(5-{[(2-methoxyethyl)amino]methyl}pyridin-2-yl)thieno[3,2-b]pyridin-7-yl]oxy}phenyl)-2-oxo-1-phenyl-1,2-dihydropyridine-3-carboxamide hydrochloride], the IC50 is 9110 nM in test [4], 1940 nM in test [5], > 10000 nM in test [6] and 7290 nM in test [7].

As for `C=CC(=O)N1CCN(c2nc(=O)n(-c3c(C)ccnc3C(C)C)c3nc(-c4c(O)cccc4F)c(F)cc23)[C@@H](C)C1` [Positive control 2, reference compound], the “Cell killing efficacy (cell death)” value in test [1] and in test [2] was “response to the drug was low” each time. In addition, the IC50 in test [4] was 50 nM; in test [5] it was > 10000 nM; in test [6] it was > 10000 nM; in test [7], > 10000 nM.
